Converted amounts (≈) assume the structure as drawn.
Test system: Mtb pheS–FDAS
Assay type: cell-based, Mycobacterium tuberculosis

`O=C(Nc1cccnc1)N1CCC(Cc2cccc(Oc3ccc(C(F)(F)F)cn3)c2)CC1` [PF-3845] was tested. Which “MIC, pheS–FDAS mutant” value did it give?
The value was 40 µM (≈ 18.3 µg/mL).

— paper PMC7948948 (The Journal of Biological Chemistry, 2021)
